The results in this text go back to US10934297B2, “5-heteroaryl substituted indazole-3-carboxamides and preparation and use thereof” (Samumed, LLC, priority 2018, dated 2021).

Test [1] deals with SW480 colon carcinoma cells. Put plainly: Cell viability assay (CellTiter-Glo) in SW480 colon carcinoma cells. The test is classed as cell-based, human. Conditions: Homo sapiens, 96 h, four days. The protocol:
Representative compounds were screened using the assay procedure to assess the effect on cell viability as described below.
SW480 colon carcinoma cells were transduced with a lentiviral vector expressing luciferase with a human Sp5 promoter consisting of a sequence of eight TCF/LEF binding sites. SW480 cells stably expressing the Sp5-Luc reporter gene and a hygromycin resistance gene were selected by treatment with 150 μg/mL of hygromycin for 7 days. These stably transduced SW480 cells were expanded in cell culture and used for all further screening activities.
For the Cell Viability Assays, the cells were plated at 2,000 cells/well in 384-well plates with a DMEM medium containing 1% fetal bovine serum, and 1% Penicillin-Streptomycin and incubated for […] at 37° C. and 5% CO2. Eight replicates of DMSO-treated cells served as controls and cells treated with compound were performed in duplicate.
After incubation, 10 μL of CellTiter-Glo (Promega) was added to each well allowed to incubate for approximately 12 minutes. This reagent “results in cell lysis and generation of a luminescent signal proportional to the amount of ATP present. The amount of ATP is directly proportional to the number of cells present in culture, in agreement with previous reports. The CellTiter-Glo® Assay generates a “glow-type” luminescent signal, produced by the luciferase reaction (Promega.com)”.
(In general: In ATP-based viability assays light output follows the ATP content of the culture.)

Test [2] deals with Wnt activity (Sp5-Luc reporter in SW480 cells). Put plainly: Screening assay for Wnt activity: Sp5-Luc reporter gene assay in SW480 colon carcinoma cells. Type of test: cell-based, human. Conditions: Homo sapiens, 36 to 48 hours. The source says: The screening assay for Wnt activity is described as follows. Reporter cell lines can be generated by stably transducing cancer cell lines (e.g., colon cancer) or primary cells (e.g., IEC-6 intestinal cells) with a lentiviral construct that includes a Wnt-responsive promoter driving expression of the firefly luciferase gene.
SW480 colon carcinoma cells were transduced with a lentiviral vector expressing luciferase with a human Sp5 promoter consisting of a sequence of eight TCF/LEF binding sites. SW480 cells stably expressing the Sp5-Luc reporter gene and a hygromycin resistance gene were selected by treatment with 150 μg/mL of hygromycin for 7 days. These stably transduced SW480 cells were expanded in cell culture and used for all further screening activities. […] For Sp5-Luc reporter gene assays, the cells were plated at 4,000 cells/well in 384-well plates with a DMEM medium containing 1% fetal bovine serum, and 1% Penicillin-Streptomycin and incubated for 36 to 48 hours at 37° C. and 5% CO2. Following incubation, 15 μl of BriteLite Plus luminescence reagent (Perkin Elmer) was added to each well of the 384-well assay plates. The plates were placed on an orbital shaker for 2 min and then luminescence was quantified using the Envision (Perkin Elmer) plate reader. Readings were normalized to DMSO only treated cells, and normalized activities were utilized for EC50 calculations using the dose-response log (inhibitor) vs. response-variable slope (four parameters) nonlinear regression feature available in GraphPad Prism 5.0 (or Dotmatics).

The next test deals with GSK3β kinase (Homo sapiens (Human), UniProt P49841). Put plainly: GSK3β kinase assay (Ser/Thr 09 peptide Z-lyte FRET). The test is classed as biochemical. Particulars: read-out: EC50 (method: IC50). The protocol:
Representative compounds were screened using the assay procedure for GSK3β kinase activity as described below.
This is a non-radioactive assay using fluorescence resonance energy transfer (FRET) between coumarin and fluorescein to detect kinase activity which is represented as ratio of coumarin emission/fluorescein emission.
The mixture is allowed to incubate with the representative compounds for one hour at room temperature. All reactions were performed in duplicate. Unphosphorylated (“0% Control”) and phosphorylated (“100% control”) forms of Ser/Thr 18 serve as control reactions.
After incubation, diluted Development Buffer is added to the reaction and allowed to further incubate for one hour at room temperature.
Dose-response curves are generated and inhibitory concentration (IC50) values are calculated using non-linear regression curve fit in the Dotmatics' Studies Software (Bishops Stortford, UK).

For a further test, the target named is DYRK1A kinase (Homo sapiens (Human), UniProt Q13627). Nature of the test: DYRK1A kinase assay (Ser/Thr 18 peptide Z-lyte FRET). Particulars: read-out: EC50 (method: IC50). The test is classed as biochemical. The protocol: Representative compounds were screened using the assay procedure for DYRK1A kinase activity as described below.
This is a non-radioactive assay using fluorescence resonance energy transfer (FRET) between coumarin and fluorescein to detect kinase activity which is represented as a ratio of coumarin emission/fluorescein emission.
The mixture was allowed to incubate with the representative compounds for one hour at room temperature. All reactions were performed in duplicate. Unphosphorylated (“0% Control”) and phosphorylated (“100% control”) forms of Ser/Thr 18 served as control reactions. Additionally, an 11-point dose-response curve of Staurosporine (1 uM top) was run to serve as a positive compound control.
After incubation, Development Reagent A was diluted in Development Buffer then added to the reaction and allowed to further incubate for one hour at room temperature.

Test [3] has as its system primary human fibroblasts derived from IPF patients (LL29 cells). Put plainly: Inhibition of the fibrotic process: αSMA staining in TGF-β1 treated LL29 fibroblasts. Particulars: Homo sapiens, Fibroblast, 96 h; LL29 cells, TGF-β1 20 ng/mL, 4 days, % αSMA positive cells. The test is classed as cell-based. The protocol:
Representative compounds were screened using primary human fibroblasts (derived from IPF patients) treated with TGF-β1 to determine their ability to inhibit the fibrotic process.
LL29 cells were plated at 1,500 cells/well in 70 μL/well F12 medium supplemented with 1% Fetal Bovine Serum. […] Wells treated with TGF-β1 and containing DMSO were used as positive control, and cells with only DMSO were negative control. […] Following incubation for 4 days, SYTOX green nucleic acid stain (Life Technologies [Thermo Fisher Scientific]) was added to the wells at a final concentration of 1 μM and incubated at room temperature for 30 min.

Sequence of GSK3β kinase (P49841 whole entry): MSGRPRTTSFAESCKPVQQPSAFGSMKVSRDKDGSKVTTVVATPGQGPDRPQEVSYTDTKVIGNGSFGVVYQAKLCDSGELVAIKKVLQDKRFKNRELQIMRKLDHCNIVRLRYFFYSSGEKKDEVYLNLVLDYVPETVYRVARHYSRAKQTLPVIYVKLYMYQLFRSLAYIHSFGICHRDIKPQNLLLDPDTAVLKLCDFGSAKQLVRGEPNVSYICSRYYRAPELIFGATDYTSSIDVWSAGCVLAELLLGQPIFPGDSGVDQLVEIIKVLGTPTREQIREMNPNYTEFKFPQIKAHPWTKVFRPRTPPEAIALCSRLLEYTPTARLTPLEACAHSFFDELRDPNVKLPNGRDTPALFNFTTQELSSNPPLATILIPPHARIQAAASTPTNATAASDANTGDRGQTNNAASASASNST

In general, EC50 refers to the concentration needed to bring the measured effect to its halfway point. A higher EC50 goes with a less potent agent. In general, IC50 refers to the concentration needed to halve the response being measured. Turning to `Cn1cc(-c2cc(Cl)c3[nH]nc(C(=O)NC4CCC(F)(F)CC4)c3c2)cn1` [Compound 17, 7-Chloro-N-(4,4-difluorocyclohexyl)-5-(1-methyl-1H-pyrazol-4-yl)-1H-indazole-3-carboxamide], the EC50 was greater than 10000 nM in test [1], greater than 10000 nM in test [2] and 1200 nM in test [3]. In addition, the IC50 at GSK3β kinase and on DYRK1A kinase was greater than 10000 nM throughout.
`CC(C)(C)n1cc(-c2ccc3[nH]nc(C(=O)N[C@H]4CC[C@H](CN5CC(F)C5)CC4)c3c2)cn1` [Compound 25, 5-(1-(tert-Butyl)-1H-pyrazol-4-yl)-N-((1R,4R)-4-((3-fluoroazetidin-1-yl)methyl)cyclohexyl)-1H-indazole-3-carboxamide]: the concentration giving a half-maximal response (EC50) was 6020 nM in test [1], greater than 10000 nM in test [2] and 1890 nM in test [3]. Moreover, the half-maximal inhibitory concentration (IC50) was determined as 788 nM at GSK3β kinase and 618 nM on DYRK1A kinase.
On the same counts, the results for `CN1CCC(NC(=O)c2n[nH]c3ccc(-c4cc(C(F)(F)F)nn4C)cc23)CC1` [Compound 29, 5-(1-Methyl-3-(trifluoromethyl)-1H-pyrazol-5-yl)-N-(1-methylpiperidin-4-yl)-1H-indazole-3-carboxamide] are 9240 nM, greater than 10000 nM, greater than 10000 nM, greater than 10000 nM and greater than 10000 nM.
For `Cc1ncc(-c2ccc3[nH]nc(C(=O)NC4CCN(CC(C)(C)F)CC4)c3c2)n1C` [Compound 42, 5-(1,2-Dimethyl-1H-imidazol-5-yl)-N-(1-(2-fluoro-2-methylpropyl)piperidin-4-yl)-1H-indazole-3-carboxamide], the IC50 at GSK3β kinase was 29 nM; on DYRK1A kinase, 28 nM.
In the case of `C[C@H]1C[C@H](NC(=O)c2n[nH]c3ccc(-c4cnn(C)c4)cc23)CCN1CC(C)(C)F` [Compound 44, N-((2S,4R)-1-(2-fluoro-2-methylpropyl)-2-methylpiperidin-4-yl)-5-(1-methyl-1H-pyrazol-4-yl)-1H-indazole-3-carboxamide], the IC50 at GSK3β kinase and on DYRK1A kinase was 7 nM each time.
In the case of `O=C(Nc1ccc(F)cc1)c1n[nH]c2ccc(-c3cnn(C4CNC4)c3)cc12` [Compound 47, 5-(1-(Azetidin-3-yl)-1H-pyrazol-4-yl)-N-(4-fluorophenyl)-1H-indazole-3-carboxamide], the EC50 in test [1] was greater than 10000 nM; in test [2] it was 4580 nM; in test [3], 5210 nM. The half-inhibitory concentration (IC50) on GSK3β kinase turned out to be 674 nM; at DYRK1A kinase, 190 nM.
The compound `O=C(Nc1ccc(F)cc1)c1n[nH]c2ccc(-c3cnc4n3CCNC4)cc12` [Compound 52, N-(4-Fluorophenyl)-5-(5,6,7,8-tetrahydroimidazo[1,2-a]pyrazin-3-yl)-1H-indazole-3-carboxamide] came in with an EC50 in test [2] greater than 10000 nM. The concentration for half-maximal inhibition (IC50) at GSK3β kinase and at DYRK1A kinase was 11 nM in each case.
`O=C(Nc1ccc(F)cc1)c1n[nH]c2ccc(-c3nnc4n3CCNC4)cc12` [Compound 53, N-(4-Fluorophenyl)-5-(5,6,7,8-tetrahydro-[1,2,4]triazolo[4,3-a]pyrazin-3-yl)-1H-indazole-3-carboxamide]: the values for the EC50 in test [1], in test [2] and in test [3] were greater than 10000 nM, 1840 nM and greater than 10000 nM, respectively. The half-inhibitory concentration (IC50) at GSK3β kinase worked out at 1 nM; at DYRK1A kinase, 27 nM.
Turning to `O=C(Nc1ccc(OC(F)F)cc1)c1n[nH]c2ccc(-c3cnn(C4CCNCC4F)c3)cc12` (stereo not shown) [Compound 57, N-(4-(Difluoromethoxy)phenyl)-5-(1-(3-fluoropiperidin-4-yl)-1H-pyrazol-4-yl)-1H-indazole-3-carboxamide], the figures for the EC50 in test [1], in test [2] and in test [3] were 570 nM, 1090 nM and 597 nM, respectively. Further, the 50% inhibitory concentration (IC50) at GSK3β kinase turned out to be 5380 nM; on DYRK1A kinase it was 1050 nM.
Taken in the same sequence, the figures for `CN1CCC(n2cc(-c3ccc4[nH]nc(C(=O)Nc5ccc(OC(F)F)cc5)c4c3)cn2)CC1` [Compound 58, N-(4-(Difluoromethoxy)phenyl)-5-(1-(1-methylpiperidin-4-yl)-1H-pyrazol-4-yl)-1H-indazole-3-carboxamide] were 328 nM, 1500 nM, 5140 nM, 3020 nM and 53 nM.
As for `CC(C)(F)CN1CCC(n2cc(-c3ccc4[nH]nc(C(=O)Nc5ccc(OC(F)F)cc5)c4c3)cn2)CC1` [Compound 61, N-(4-(difluoromethoxy)phenyl)-5-(1-(1-(2-fluoro-2-methylpropyl)piperidin-4-yl)-1H-pyrazol-4-yl)-1H-indazole-3-carboxamide], the values for the EC50 in test [1], in test [2] and in test [3] were greater than 10000 nM, greater than 10000 nM and 9 nM, respectively. The IC50 at GSK3β kinase was 9370 nM; at DYRK1A kinase, 9940 nM.
As for `O=C(Nc1ccc(OC(F)F)cc1)c1n[nH]c2ccc(-c3cnn(C4CCOCC4)c3)cc12` [Compound 62, N-(4-(Difluoromethoxy)phenyl)-5-(1-(tetrahydro-2H-pyran-4-yl)-1H-pyrazol-4-yl)-1H-indazole-3-carboxamide], the half-maximal effective concentration (EC50) is greater than 10000 nM in test [1], 2280 nM in test [2] and 3100 nM in test [3]. For the same compound, the half-maximal inhibitory concentration (IC50) on GSK3β kinase was greater than 10000 nM; on DYRK1A kinase, 3920 nM.
Regarding `O=C(Nc1ccc(OC(F)F)cc1)c1n[nH]c2ccc(-c3cnc4n3CCNC4)cc12` [Compound 64, N-(4-(Difluoromethoxy)phenyl)-5-(5,6,7,8-tetrahydroimidazo[1,2-a]pyrazin-3-yl)-1H-indazole-3-carboxamide], the EC50 was found to be 1700 nM in test [1], 937 nM in test [2] and 1530 nM in test [3]. The values for the IC50 at GSK3β kinase and at DYRK1A kinase were 21 nM and 16 nM, respectively.
Regarding `Cn1cc(-c2cc3c(C(=O)Nc4ccc(CN5CC(F)C5)cc4)n[nH]c3cc2F)cn1` [Compound 67, 6-Fluoro-N-(4-((3-fluoroazetidin-1-yl)methyl)phenyl)-5-(1-methyl-1H-pyrazol-4-yl)-1H-indazole-3-carboxamide], the EC50 in test [1] turned out to be 1000 nM; in test [2], 549 nM; in test [3] it was 150 nM. Further, the values for the IC50 on GSK3β kinase and on DYRK1A kinase were 35 nM and 9 nM, respectively.
On the same counts, the results for `Cn1cc(-c2cc3c(C(=O)Nc4ccc(CN5CCC(F)(F)CC5)cc4)n[nH]c3cc2F)cn1` [Compound 76, N-(4-((4,4-Difluoropiperidin-1-yl)methyl)phenyl)-6-fluoro-5-(1-methyl-1H-pyrazol-4-yl)-1H-indazole-3-carboxamide] are 6200 nM, 1290 nM, 174 nM, 302 nM and 107 nM.
